Consider one molecule from EP0926242A1, “GLIOTOXIN DERIVATIVES AND ANTICANCER AGENT COMPRISING THE SAME” (priority 1996, dated 1998).

SMILES strings stand for the structures. Converted amounts (≈) assume the structure as drawn.

For assay [1], the system named is HCT-116 (human carcinoma of the colon). Nature of the assay: Cytotoxity of acetylgliotoxin by the MTT method. It is filed as cell-based. To be noted: HCT-116, 72 hours. The method, then:
(§1) Antitumor activity of acetylgliotoxin against various cancer cells was measured by the MTT method. Various cancer cells were adjusted to 4.0 × 10^4 cells/mL by using a medium (hereinafter referred to as medium A) composed of RPMI 1640 medium (GIBCO) containing 10% fetal calf serum, and each 0.1 mL of the cancer cells was pipetted into each well of a 96 well microtiter plate. The plate was incubated in a carbon dioxide gas incubator at 37 °C for 20 hours, and each 0.025 mL of samples (test compounds) suitably diluted with the medium A was added. Then, incubation was further carried out in the carbon dioxide gas incubator at 37 °C for 72 hours. Each 0.01 mL of the MTT solution adjusted to 5 mg/mL by using Dulbecco's PBS (-) (Nissui) was added thereto, and incubated in the carbon dioxide gas incubator at 37 °C for 3 hours. Subsequently, each 0.05 mL of 0.01 N HCl/20 % SDS was added. Produced crystals were dissolved, and absorbance at 570 nm was measured by a microplate reader. By comparing the absorbance of the cells treated with the sample in the known concentration with that of non-treated cells, the sample concentration which inhibits multiplication of the cells at the rate of 50% (IC50) was calculated. Apoptosis was determined by incubating the plate in the carbon dioxide gas incubator at 37 °C for 20 hours, adding each 0.025 mL of samples (test compounds) suitably diluted with the medium A, incubating in the carbon dioxide gas incubator at 37 °C for 72 hours, according to the above method, adding nucleus-staining fluorescent dye DAPI (4,6 - diaminodino-2-henylindole) to each well so as to become 0.5 ng/mL, and after leaving at room temperature for 10 minutes, confirming agglomeration of chromosomes by using a fluorescence microscope.
(§2) Human leukemia cells (K 562 : Dainippon Seiyaku), human carcinoma cells of the colon (HCT-15, HCT-116, SW946: Dainippon Seiyaku), human leukemia cells (U 937: Dainippon Seiyaku), human lung cancer cells (LX-1: Biseibutsu Kagaku Kenkyu-sho), mouse leukemia cells (P 388 : Dainippon Seiyaku), mouse carcinoma cells of the colon (colon-26 : Gan Kenkyu-kai, Gan Kenkyu-sho) Table 1

Assay [2] relates to P388 (mouse leukemia ). Nature of the assay: Cytotoxity of acetylgliotoxin by the MTT method. It is filed as cell-based. To be noted: P388, 72 hours. The protocol: as §1, §2
On the technique in general: Tetrazolium assays rely on reduction of a dye to a coloured formazan, in cell work by metabolically active cells.

Assay [3] has as its system SW948 (human carcinoma of the colon). Nature of the assay: Cytotoxity of acetylgliotoxin by the MTT method. It is filed as cell-based. To be noted: SW948, 72 hours. The method, then: as §1, §2
Assay [4] relates to U937 (human leukemia ). Briefly: Cytotoxity of acetylgliotoxin by the MTT method. It is filed as cell-based. To be noted: U-937, U937, 72 hours. The protocol: as §1, §2
Assay [5] relates to colon-26 (mouse carcinoma of the colon ). Nature of the assay: Cytotoxity of acetylgliotoxin by the MTT method. It is filed as cell-based. To be noted: colon-26, 72 hours. The protocol:
as §1, §2

In assay [6] the test system is human carcinoma of the colon HCT-116. Briefly: Evaluation in vivo using human carcinoma of the colon HCT-116 (Example 1). The arrangement: species or system Balb/c nu/nu mice. The following applies: for I. R. (%): day 21, Balb/c nu/nu mice. The protocol:
Balb/c nu/nu mice (female: 5 weeks old) were bought, and HCT- 116 subcultured in vivo in the subcutaneous tissue was taken out. The HCT-116 was minced in a Petridish, and transplanted into the sulcutaneous tissue of […] mice in an amount of 30 mg/mouse by a trucker. The transplanted day was assigned day 0, and the size of the tumor and body weight were measured on day 7 and divided into groups by n=2.
Acetylgliotoxin was dissolved in dimethyl sulfoxide (DMSO) in a concentration of 100 mg/mL, and adjusted to an object concentration (0.5 mg/kg, 1 mg/kg, 10 mg/kg, 20 mg/kg) by 5 % Tween 80 (saline solution). In the evaluation of 0.5, 1 mg/kg, injection was carried out every day for 5 days, in the case of 10 mg/kg, injected twice on day 7 and day8, and in the case of 20 mg/kg, injected once on day 7.
The anticancer effect was evaluated by the inhibition rate of tumor cell multiplication (IR calculated from the weight of tumor. IR was obtained by the following formula.

Regarding `CC(=O)OC1C=CC=C2CC34SSC(CO)(C(=O)N3C21)N(C)C4=O` (stereo not shown) [acetylgliotoxin], the concentration for half-maximal inhibition (IC50) in assay [1] was 0.18 µg/mL (≈ 0.489 µM); in assay [2] it was 0.0058 µg/mL (≈ 0.0157 µM); in assay [3], 0.19 µg/mL (≈ 0.516 µM); in assay [4], 0.014 µg/mL (≈ 0.038 µM); in assay [5] it was 0.076 µg/mL (≈ 0.206 µM). Besides, the “I. R. (%)” value in assay [6] (0.5 mg/kg×5 i.p.(d7-11)) is reported as 41%; in assay [6] (1 mg/kg×5 i.p.(d7-11)), 65%; in assay [6] (10 mg/kg×2 i.p.(d7, 8)), 65%; in assay [6] (20 mg/kg×1 i.p. (d7)), 28%. Further, the “duration of anticancer effects” value in assay [6] (Test Example (B), 1 mg/kg × 5 and 10 mg/kg × 2) is “continued up to day 42”.

By IC50 is commonly meant the concentration that gives 50% inhibition.
